Where two headings read alike, the source gives them in different places.
Legend:
Assay type in all cases: cell-based
E. coli = system: E. coli
A. calcoaceticus = system: A. calcoaceticus
S. marcescens = system: S. marcescens
E. cloacae = system: E. cloacae
S. aureus = system: S. aureus
S. maltophilia = system: S. maltophilia
K. pneumoniae = system: K. pneumoniae
P. aeruginosa = system: P. aeruginosa
E. faecalis = system: E. faecalis
S. epidermidis = system: S. epidermidis

Sequence | MIC (E. coli; E. coli ECO005) | MIC (A. calcoaceticus; A. calcoaceticus AC002) | MIC (S. marcescens; S. marcescens SMS003) | MIC (E. cloacae; E. cloacae ECL007) | MIC (S. aureus; S. aureus SA014) | MIC (S. aureus; S. aureus SA093) | MIC (S. maltophilia; S. maltophilia SMA002) | MIC (K. pneumoniae; K. pneumoniae KP001) | MIC (P. aeruginosa; P. aeruginosa PA004) | MIC (E. faecalis; E. faecalis EFS001) | MIC (E. faecalis; E. faecalis EFS008) | MIC (S. epidermidis; S. epidermidis SE010) | further results
ALRWPWWPWRRK [MBI 11H01CN] | 8 mg/L | 2 mg/L | >128 mg/L | >128 mg/L | 2 mg/L | 1 mg/L | 32 mg/L | 8 mg/L | 128 mg/L | 2 mg/L | 8 mg/L | 2 mg/L | –
CLRWPWWPWRRK [MBI 11D19CN] | 32 mg/L | 8 mg/L | >128 mg/L | >128 mg/L | 4 mg/L | 2 mg/L | 64 mg/L | 32 mg/L | 128 mg/L | 4 mg/L | 64 mg/L | 8 mg/L | –
IARWPWWPWRRK [MBI 11H02CN] | 16 mg/L | 4 mg/L | >128 mg/L | >128 mg/L | 2 mg/L | 1 mg/L | 64 mg/L | 32 mg/L | >128 mg/L | 2 mg/L | 16 mg/L | 4 mg/L | –
ILAWPWWPWRRK [MBI 11H03CN] | 16 mg/L | 8 mg/L | >128 mg/L | >128 mg/L | 2 mg/L | 2 mg/L | 64 mg/L | 16 mg/L | >128 mg/L | 2 mg/L | 8 mg/L | 4 mg/L | –
ILKKNPNNPARRK [MBI 11CNX1] | 64 mg/L | – | >64 mg/L | >64 mg/L | – | – | >64 mg/L | >64 mg/L | – | – | – | – | MIC (A. calcoaceticus; A. calcoaceticus AC001): >64 mg/L; MIC (S. aureus; S. aureus SA006): 2 mg/L; MIC (P. aeruginosa; P. aeruginosa PA024): >64 mg/L; MIC (E. faecalis; E. faecalis EFS004): 16 mg/L
ILKKNPNNPNRK [MBI 11B4ACN] | – | – | – | – | – | – | – | – | – | – | – | – | MIC (E. coli; E. coli strain ECO005): 32 mg/L; MIC (A. calcoaceticus; A. calcoaceticus strain AC002): 4 mg/L; MIC (S. marcescens; S. marcescens strain SMS003): >128 mg/L; MIC (E. cloacae; E. cloacae strain ECL007): >128 mg/L; MIC (S. aureus; S. aureus strain SA008): 1 mg/L; MIC (S. maltophilia; S. maltophilia strain SMA002): 64 mg/L; MIC (K. pneumoniae; K. pneumoniae strain KP001): 32 mg/L; MIC (P. aeruginosa; P. aeruginosa strain PA004): >128 mg/L; MIC (E. faecalis; E. faecalis strain EFS008): 64 mg/L; MIC (S. epidermidis; S. epidermidis strain SE010): 8 mg/L
ILKKNPNNPNRRK [MBI 11CNY1] | >64 mg/L | – | >64 mg/L | >64 mg/L | – | – | >64 mg/L | >64 mg/L | >64 mg/L | – | – | 128 mg/L | MIC (A. calcoaceticus; A. calcoaceticus AC001): >64 mg/L; MIC (S. aureus; S. aureus SA006): 16 mg/L; MIC (E. faecalis; E. faecalis EFS004): >64 mg/L
